In patent US20250354111A1, “BOVINE SEX-SORTED SPERM SORTING SOLUTION MEDIATED BY SMALL MOLECULE COMPOUND AND ITS APPLICATION” (Inner Mongolia University, priority 2024, published 2025):

Test system: bovine sperm
Assay: Effect of creatine concentration on sorting of X and Y sperm in sorting solution with 24e drug (Example 2)
Assay type: cell-based
Settings: creatine 500 μM with 24e drug 0.3 μM; 37° C., 60 min; 6x107 sperm/mL
Method: Based on the exploration in Example 1 that the range of 0.27 μM-0.33 μM is the optimal concentration range for the 24e drug to sort bovine sperm, the effect of creatine on the sperm sorting effect was examined by incubating bovine sperm with creatine added to the sorting solution with a 24e drug concentration of 0.3 μM.
Fresh bovine semen provided by the Grassland Livestock Germplasm Innovation and Breeding Base of Inner Mongolia University was used, washed with in vitro fertilization solution, and after dilution, the sperm density was 6x107 sperm/mL. At 37° C., the 24e drug was added to the sperm sorting protection solution to make the final concentration of the 24e drug 0.3 μM. On this basis, creatine was added, and bovine sperm was incubated for 60 min. The amounts of creatine used were 0 μM (control group), 200 μM, 300 μM, 400 μM, 500 µM, and 600 μM. The sorting effect of sperm at each creatine concentration was obtained by analyzing the sperm in the upper and lower layers, as shown in FIG. 2. […] In the upper layer of sperm, the percentage of X sperm is 22%, and the percentage of Y sperm is 78%. Creatine can enhance the activity of sperm, so that Y sperm floats up faster, while the activity of X sperm is inhibited by the 24e drug and sinks, making the stratification more obvious and improving the sorting efficiency. When the sperm density is 6x10^7 sperm/mL, the concentration of the 24e drug is 0.27 μM-0.33 μM, and the creatine concentration is 500 μM-600 μM, the sorting effect on bovine sperm is the best.

Q: CN(CC(=O)O)C(=N)N [creatine] was tested. Which “percentage of X sperm in the lower layer of sorted sperm” value did it give?
A: 70.33%

Q: And the “percentage of X sperm in the upper layer of sperm” value?
A: 22%

Q: What about the “percentage of Y sperm in the lower layer of sorted sperm” value of the same compound?
A: 29.67%

Q: And the “percentage of Y sperm in the upper layer of sperm” value?
A: 78%
